Results as given in patent publication US12458640B2, “Pyrazolo[3,4-b]pyrazine SHP2 phosphatase inhibitors” (OTSUKA PHARMACEUTICAL CO., LTD., priority 2019, dated 2025).

What was measured:
SHP2 = SHP2 (Homo sapiens (Human), UniProt Q06124); test: Shp2 Biochemical Assay (DiFMUP conversion); details: 10 pM SHP2, activating peptide pIRS1, DiFMUP substrate; average where more than one data point
Experimental: SHP2 activity was monitored by measuring the conversion of the surrogate substrate 6,8-difluoromethylumbelliferyl phosphate (DiFMUP) to the fluorescent product, 6,8-difluoromethylumbelliferone (DiFMU).
SHP2 was pre-incubated with test compounds and the activating peptide pIRS1 (H2N-LN(pY)IDLDLV-(PEG)8-LST(pY)ASINFQK-amide) for 30 min, prior to addition of the 6,8-difluoromethylumbelliferyl phosphate (DiFMUP), (Thermo Fisher D6567). Final assay concentrations were 10 pM SHP2, 0.25 μM pIRS1 peptide, 50 μM DiFMUP, 25 mM Bis-Tris propane, pH 7.0, 150 mM NaCl, 0.05% (v/v) Tween-20, 0.5 mM TCEP and 5% (v/v) DMSO. Rates of reaction were then measured over 30 min by monitoring fluorescence on a BMG Pherastar reader at excitation 360 nm/emission 450 nm. IC50 values were calculated from the normalized dose-response plots using four parameter logistic curve fit.

pERK = test: Cellular pERK Inhibition Assay (phospho-p44/42 MAPK sandwich ELISA); assay type: cell-based; details: Homo sapiens; HCC827 cells, 0.5 hours compound treatment; average where more than one data point
Experimental: Cellular pERK Inhibition Assay
HCC827 cells (ATCC, Manassas, USA) were seeded into 96-well plates at a density of 1×10^5 cells/well in RPMI medium supplemented with 10% FBS and incubated 24 h. Compounds were diluted first in DMSO and then into serum-free medium, before being added to cells in triplicate to give a final concentration of 0.1% DMSO. Plates were incubated at 37° C. for 0.5 hours in a humidified atmosphere of 5% CO2 in air.
Following compound treatment, medium was removed and cells were lysed by adding 50 μL of lysis buffer (Cell Signalling Technology, Beverly, USA) to each well. Plates were then incubated at room temperature for 25 minutes with shaking. pERK levels were measured in lysates using the PathScan® phospho-p44/42 MAPK (Thr202/Tyr204) sandwich ELISA (Cell Signalling Technology, Beverly, USA) as per kit instructions. Briefly, 50 μL of cell lysate was added to 50 μL of ELISA sample diluent in a 96-well ELISA plate and incubated overnight at 4° C. Following washing, 100 μL of detection antibody was added per well and the plates incubated for 1 hour at 37° C. Plates were washed again and incubated at 37° C. for 30 minutes with 100 μl of HRP-linked secondary antibody per well. After final washing, 100 μL per well of TMB substrate was added and plates incubated at 37° C. to develop colour. Colour development was stopped by the addition of 100 μL per well of stop solution. Plates were read at 450 nm on a SpectraMax Gemini reader (Molecular Devices, Uckfield, UK).
The average signal from blank wells (no cells added) was subtracted from the signals from each sample well. Levels of pERK were then expressed as “percent of control”, using DMSO treated samples as control. Dose response curves were generated using GraphPad Prism Version 6 (GraphPad Software, La Jolla, USA) and fitted using the four parameter logistic curve fit.

Sequence of SHP2 (Q06124 whole entry): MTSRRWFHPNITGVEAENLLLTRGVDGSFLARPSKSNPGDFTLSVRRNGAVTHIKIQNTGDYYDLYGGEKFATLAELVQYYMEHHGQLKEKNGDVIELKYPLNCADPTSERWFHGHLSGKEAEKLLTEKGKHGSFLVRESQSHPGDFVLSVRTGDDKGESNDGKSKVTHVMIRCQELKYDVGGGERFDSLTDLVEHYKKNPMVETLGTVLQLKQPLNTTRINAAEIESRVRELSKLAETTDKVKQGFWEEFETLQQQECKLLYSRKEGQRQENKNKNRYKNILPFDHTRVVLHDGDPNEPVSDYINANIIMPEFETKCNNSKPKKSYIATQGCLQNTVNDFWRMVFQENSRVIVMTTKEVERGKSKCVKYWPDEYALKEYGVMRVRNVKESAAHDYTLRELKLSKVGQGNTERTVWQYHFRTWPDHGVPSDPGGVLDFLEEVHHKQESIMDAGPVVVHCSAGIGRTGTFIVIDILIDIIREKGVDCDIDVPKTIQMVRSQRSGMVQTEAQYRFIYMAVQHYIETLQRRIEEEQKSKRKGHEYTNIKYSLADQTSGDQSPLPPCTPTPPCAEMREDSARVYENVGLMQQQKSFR

| Structure (SMILES) | IC50 (SHP2) | IC50 (pERK) |
| --- | --- | --- |
| COc1cnc2ccc(-c3n[nH]c4nc(N5CCC6(CC5)CO[C@@H](C)[C@H]6N)c(CO)nc34)c(Cl)c2n1 [Example 22, {6-[(3S,4S)-4-amino-3-methyl-2-oxa-8-azaspiro[4.5]decan-8-yl]-3-(5-chloro-3-methoxyquinoxalin-6-yl)-1H-pyrazolo[3,4-b]pyrazin-5-yl}methanol] | 11 nM | 8.4 nM |
| C[C@@H]1OCC2(CCN(c3nc4[nH]nc(-c5cccc(Cl)c5F)c4nc3CO)CC2)[C@@H]1N [Example 23, {6-[(3S,4S)-4-amino-3-methyl-2-oxa-8-azaspiro[4.5]decan-8-yl]-3-(3-chloro-2-fluorophenyl)-1H-pyrazolo[3,4-b]pyrazin-5-yl}methanol] | 5.4 nM | 5.8 nM |
| C[C@@H]1OCC2(CCN(c3nc4[nH]nc(-c5ccccc5Cl)c4nc3CO)CC2)[C@@H]1N [Example 24, {6-[(3S,4S)-4-amino-3-methyl-2-oxa-8-azaspiro[4.5]decan-8-yl]-3-(2-chlorophenyl)-1H-pyrazolo[3,4-b]pyrazin-5-yl}methanol] | 11 nM | 6.4 nM |
| Cc1nc2c(-c3ccc4ncc(N5CCC5)nc4c3Cl)n[nH]c2nc1N1CCC2(CC1)CO[C@@H](C)[C@H]2N [Example 25, (3S,4S)-8-{3-[3-(azetidin-1-yl)-5-chloroquinoxalin-6-yl]-5-methyl-1H-pyrazolo[3,4-b]pyrazin-6-yl}-3-methyl-2-oxa-8-azaspiro[4.5]decan-4-amine] | 24 nM | 28 nM |
| Cc1nc2c(-c3ccc4ncc(N5CCOCC5)nc4c3Cl)n[nH]c2nc1N1CCC2(CC1)CO[C@@H](C)[C@H]2N [Example 26, (3S,4S)-8-{3-[5-chloro-3-(morpholin-4-yl)quinoxalin-6-yl]-5-methyl-1H-pyrazolo[3,4-b]pyrazin-6-yl}-3-methyl-2-oxa-8-azaspiro[4.5]decan-4-amine] | 28 nM | 18 nM |
